The compounds below were run against β2 adrenergic receptor (Homo sapiens (Human), UniProt P07550) (assay: cAMP Gs dynamic HTRF assay, β2 expressing CHO cells). Settings: B2-AR; CHO-K1 (HitHunter); read-out: Average pEC50 [Receptor subtype: B2-AR; Cell type: CHO-K1 (HitHunter)] (converted).
β2 adrenergic receptor, sequence (P07550 whole entry, species assumed): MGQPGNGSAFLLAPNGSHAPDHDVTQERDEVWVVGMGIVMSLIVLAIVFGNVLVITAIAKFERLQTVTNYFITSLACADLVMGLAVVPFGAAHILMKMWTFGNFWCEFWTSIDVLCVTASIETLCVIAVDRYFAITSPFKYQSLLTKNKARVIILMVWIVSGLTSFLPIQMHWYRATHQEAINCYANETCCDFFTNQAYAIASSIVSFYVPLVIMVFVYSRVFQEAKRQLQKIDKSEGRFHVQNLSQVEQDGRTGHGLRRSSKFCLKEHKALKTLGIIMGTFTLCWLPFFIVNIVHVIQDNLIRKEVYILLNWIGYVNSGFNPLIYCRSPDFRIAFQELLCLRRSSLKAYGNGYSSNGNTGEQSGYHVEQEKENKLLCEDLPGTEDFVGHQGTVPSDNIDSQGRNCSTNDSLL
Assay type: cell-based
Description: (§1) cAMP homogeneous time-resolved fluorescence (HTRF). Compound efficacy was determined using the cAMP Gs dynamic HTRF assay (Cisbio, catalog #62AM4PEC) largely following the manufacturer's instructions, also detailed below.
(§2) Compound preparation. […] Standard serial dilution curves were 10-point, 5-fold dilutions starting from a highest concentration of 10 μM. […] Assay plates were centrifuged at 500×g for 10 seconds. Compounds and IBMX were prepared at 2× final dose to compensate for addition of cells.
(§3) Cell preparation. 1× stimulation buffer, washing PBS (Dulbecco's phosphate-buffered saline, −Mg −Ca; Caisson Labs, catalog #PBL01), assay PBS (Dulbecco's phosphate-buffered saline, +Mg, +Ca; Caisson Labs, catalog #PBL02) and Versene (0.02% EDTA disodium salt solution in PBS without calcium or magnesium; Caisson Labs, catalog #EDL01) were pre-warmed to 37° C. Cells expressing beta-adrenergic receptor were washed in washing PBS to remove growth medium and then released from the surface by incubating with Versene for 5-10 minutes at 37° C. Cells were harvested using assay PBS, counted manually by hemocytometer or by an automated cell counter, pelleted by centrifugation (200×g, 5 minutes) and resuspended in 37° C. 1× stimulation buffer to a final density of 1.5×10^6 cells/mL. 5 μL of the suspended cell solution (7500 cell total) were added to all wells of the 384 well assay plate, the assay plate was covered with an Axygen® plate seal (Corning PCR-SP) and incubated in a humidified 37° C. environment supplemented with 5% CO2 for 30 minutes.
(§4) HTRF reagent addition, reading and data analysis. After 30 minutes of cell stimulation with test compound, the assay plates were centrifuged at 500×g for 10 seconds, and incubation was stopped with the addition of 5 μL cAMP-D2 acceptor, diluted 1:21 in detection and lysis buffer 2 (Cisbio 62CL2FDF) was added to all cells. Subsequently, 5 μL Anti-cAMP-Eu Donor, diluted 1:21 in detection and lysis buffer 2, was added to cells. Plates were sealed and reactions gently ‘vortexed’ at 900 rpm on a Heidolph Titramax 1000 for at least 30 minutes at room temperature. Plates were centrifuged again at 500×g for 10 seconds, and HTRF was measured using a Tecan Spark plate reader at 50 flashes per well. […] Potency estimates (EC50) were derived from the four-parameter nonlinear regression of the concentration-effect curve and an estimate of relative efficacy was determined by comparing the magnitude of the test compound HTRF signal window (min−max dose) with the signal window of the full agonist control, isoproterenol.
In the case of `O[C@H](CNC1(C(F)(F)F)CC1)c1cccc(C(F)(F)F)n1` [Compound 03-235], the EC50 is reported as over 1000 nM. With `O[C@@H](CNC1CCOCC1)c1cccc(C(F)(F)F)n1` [Compound 03-25] the EC50 was over 1000 nM. `CC(C)(COc1ccccc1)NC[C@@H](O)c1cccc(C(F)(F)F)n1` [Compound 03-185] gave an EC50 of over 1000 nM. `CC(C)(C)NC[C@@H](O)c1cccc(NC2CC2)n1` [Compound 03-250] gave an EC50 of 100 to 1000 nM. Compound `O[C@H](CNC1Cc2ccccc2C1)c1cccc(C(F)(F)F)n1` [Compound 03-22] has an EC50 of over 1000 nM. `CC(=O)Nc1cccc([C@H](O)CNC(C)(C)C)n1` [Compound 03-239] showed an EC50 of 10 to 100 nM. In the case of `CC(C)(C)NC[C@H](O)c1cccc(N2CC3CCCC3C2)n1` (some centres unmarked) [Compound 03-135], the EC50 is reported as under 10 nM. In the case of `CCN(CC)c1cccc([C@H](O)CNC(C)(C)C)n1` [Compound 03-160], the EC50 is reported as 100 to 1000 nM. `CC(C)(C)NC[C@@H](O)c1cccc(OC(C)(C)C)n1` [Compound 03-273] was tested, and the EC50 was 100 to 1000 nM. `CC(C)(C)NC[C@H](O)c1cccc(C(C)(C)C#N)n1` [Compound 03-207] was tested, and the EC50 was under 10 nM. `COc1ccc([C@@H](O)CNC(C)(C)C)c(C)n1` [Compound 03-259] gave an EC50 of under 10 nM. Compound `CNCc1cccc([C@@H](O)CN[C@H](C)Cc2ccc(OC)cc2)n1` [Compound 03-254] has an EC50 of 100 to 1000 nM. Work on `CC(C)(C)NC[C@@H](O)c1cccc(-c2cccnc2)n1` [Compound 03-152] yielded an EC50 of 10 to 100 nM. Work on `Cc1ccc([C@H](O)CNC(C)(C)C)nc1` [Compound 03-128] yielded an EC50 of over 1000 nM. `CC(C)(C)NC[C@H](O)c1cccc(-c2ccccc2Cl)n1` [Compound 03-133] gave an EC50 of under 10 nM. For `CC(C)(C)NC[C@H](O)c1cccnc1C(C)(F)F` [Compound 03-83], the EC50 was 100 to 1000 nM. `CC(C)(C)NC[C@H](O)c1cccc(-c2cccnc2)n1` [Compound 03-151] was tested, and the EC50 was under 10 nM. In the case of `CC(C)(C)NC[C@H](O)c1cccc(NC2(C)CC2)n1` [Compound 03-264], the EC50 is reported as under 10 nM. With `Cc1cccc(-c2cccc([C@@H](O)CNC(C)(C)C)n2)c1` [Compound 03-147] the EC50 was under 10 nM. Compound `CC(C)(C)NC[C@H](O)c1cccc(C(N)=O)n1` [Compound 03-17] has an EC50 of over 1000 nM. With `CC(C)(C)NC[C@@H](O)c1cccc(-c2ccncc2)n1` [Compound 03-220] the EC50 was 10 to 100 nM. With `CC(C)(C)NC[C@H](O)c1cccnc1-n1nccn1` [Compound 03-74] the EC50 was over 1000 nM.

Same assay, conditions: B2-AR; CHO-K cells; read-out: Average EC50 [Receptor subtype: B2-AR; Cell type: CHO-K]
Work on `O[C@@H](CNC1CCOCC1)c1cccc(C(F)(F)F)n1` [Compound 03-25] yielded an EC50 of over 1000 nM. Compound `CC(C)(C)NC[C@@H](O)c1ccc2ccccc2n1` [Compound 03-166] has an EC50 of 100 to 1000 nM. `CC(C)(COc1ccccc1)NC[C@@H](O)c1cccc(C(F)(F)F)n1` [Compound 03-185] was tested, and the EC50 was over 1000 nM. In the case of `O[C@H](CNC1Cc2ccccc2C1)c1cccc(C(F)(F)F)n1` [Compound 03-22], the EC50 is reported as over 1000 nM. Compound `CC(C)(C)NC[C@H](O)c1cccc(N2CC3CCCC3C2)n1` (some centres unmarked) [Compound 03-135] has an EC50 of under 10 nM. Work on `CC(C)(C)NC[C@@H](O)c1cccc(-c2cccnc2)n1` [Compound 03-152] yielded an EC50 of 100 to 1000 nM. In the case of `Cc1ccc([C@H](O)CNC(C)(C)C)nc1` [Compound 03-128], the EC50 is reported as over 1000 nM. In the case of `CC(C)(C)NC[C@H](O)c1cccc(-c2ccccc2Cl)n1` [Compound 03-133], the EC50 is reported as under 10 nM. `CC(C)(C)NC[C@H](O)c1cccc(-c2cccnc2)n1` [Compound 03-151] gave an EC50 of under 10 nM. `Cc1cccc(-c2cccc([C@@H](O)CNC(C)(C)C)n2)c1` [Compound 03-147] showed an EC50 of under 10 nM. For `CC(C)(C)NC[C@H](O)c1cccc(C(N)=O)n1` [Compound 03-17], the EC50 was over 1000 nM.

Same assay, conditions: cAMP HTRF; read-out: β2 EC50
For `Cc1cccnc1[C@@H](O)CNC(C)(C)C` [Compound 03-4], the EC50 was over 1000 nM.

These compounds were tested against β1-adrenergic receptor (Homo sapiens (Human), UniProt P08588) (assay: cAMP Gs dynamic HTRF assay, β1 expressing CHO cells). Settings: B1-AR; CHO-K1 (HitHunter).
β1-adrenergic receptor, sequence (P08588 whole entry, species assumed): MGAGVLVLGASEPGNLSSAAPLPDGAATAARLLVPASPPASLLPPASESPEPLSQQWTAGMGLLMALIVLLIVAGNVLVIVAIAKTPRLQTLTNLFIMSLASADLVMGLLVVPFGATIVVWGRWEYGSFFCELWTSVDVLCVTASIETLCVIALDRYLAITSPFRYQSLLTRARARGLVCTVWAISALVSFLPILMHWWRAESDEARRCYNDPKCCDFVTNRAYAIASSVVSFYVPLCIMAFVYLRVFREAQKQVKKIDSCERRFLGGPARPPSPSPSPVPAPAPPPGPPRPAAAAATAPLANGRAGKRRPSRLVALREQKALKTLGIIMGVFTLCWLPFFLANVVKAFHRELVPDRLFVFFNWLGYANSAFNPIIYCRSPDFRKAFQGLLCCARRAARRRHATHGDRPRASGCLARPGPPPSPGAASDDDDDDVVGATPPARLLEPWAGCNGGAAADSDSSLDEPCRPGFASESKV
Assay type: cell-based
Description: as §1, §2, §3, §4
For `O[C@@H](CNC1CCOCC1)c1cccc(C(F)(F)F)n1` [Compound 03-25], the “Average pEC50 [Receptor subtype: B1-AR; Cell type: CHO-K1 (HitHunter)]” value (“Average pEC50” for short) was “D (D < 6)”. With `CC(C)(COc1ccccc1)NC[C@@H](O)c1cccc(C(F)(F)F)n1` [Compound 03-185] the “Average pEC50” value was “D (D < 6)”. With `CC(C)(C)NC[C@H](O)c1cccc(N2CC3CCCC3C2)n1` (some centres unmarked) [Compound 03-135] the “Average pEC50” value was “C (C = <7-6)”. `CC(C)(C)NC[C@@H](O)c1cccc(-c2cccnc2)n1` [Compound 03-152] was tested, and the “Average pEC50” value was “D (D < 6)”. For `CC(C)(C)NC[C@H](O)c1cccc(-c2ccccc2Cl)n1` [Compound 03-133], the “Average pEC50” value was “C (C = <7-6)”. In the case of `CC(C)(C)NC[C@H](O)c1cccc(-c2cccnc2)n1` [Compound 03-151], the “Average pEC50” value is reported as “B (B = 8-7)”. For `CC(C)(C)NC[C@H](O)c1cccc(C(N)=O)n1` [Compound 03-17], the “Average pEC50” value was “D (D < 6)”.

Same assay, conditions: B1-AR; CHO-K1 (HitHunter); read-out: Average pEC50 [Receptor subtype: B1-AR; Cell type: CHO-K1 (HitHunter)] (converted)
In the case of `O[C@H](CNC1(C(F)(F)F)CC1)c1cccc(C(F)(F)F)n1` [Compound 03-235], the EC50 is reported as over 1000 nM. `CC(C)(C)NC[C@@H](O)c1cccc(NC2CC2)n1` [Compound 03-250] showed an EC50 of over 1000 nM. Work on `O[C@H](CNC1Cc2ccccc2C1)c1cccc(C(F)(F)F)n1` [Compound 03-22] yielded an EC50 of over 1000 nM. With `CC(=O)Nc1cccc([C@H](O)CNC(C)(C)C)n1` [Compound 03-239] the EC50 was 100 to 1000 nM. Work on `CC(C)(C)NC[C@@H](O)c1cccc(OC(C)(C)C)n1` [Compound 03-273] yielded an EC50 of over 1000 nM. `CC(C)(C)NC[C@H](O)c1cccc(C(C)(C)C#N)n1` [Compound 03-207] showed an EC50 of under 10 nM. For `COc1ccc([C@@H](O)CNC(C)(C)C)c(C)n1` [Compound 03-259], the EC50 was 10 to 100 nM. Compound `CNCc1cccc([C@@H](O)CN[C@H](C)Cc2ccc(OC)cc2)n1` [Compound 03-254] has an EC50 of over 1000 nM. Compound `Cc1ccc([C@H](O)CNC(C)(C)C)nc1` [Compound 03-128] has an EC50 of over 1000 nM. In the case of `CC(C)(C)NC[C@H](O)c1cccnc1C(C)(F)F` [Compound 03-83], the EC50 is reported as over 1000 nM. `CC(C)(C)NC[C@H](O)c1cccc(NC2(C)CC2)n1` [Compound 03-264] was tested, and the EC50 was 10 to 100 nM. With `Cc1cccc(-c2cccc([C@@H](O)CNC(C)(C)C)n2)c1` [Compound 03-147] the EC50 was 10 to 100 nM. With `CC(C)(C)NC[C@@H](O)c1cccc(-c2ccncc2)n1` [Compound 03-220] the EC50 was over 1000 nM. `CC(C)(C)NC[C@H](O)c1cccnc1-n1nccn1` [Compound 03-74] was tested, and the EC50 was over 1000 nM.

Same assay, conditions: B1-AR; CHO-K cells; read-out: Average EC50 [Receptor subtype: B1-AR; Cell type: CHO-K]
With `O[C@@H](CNC1CCOCC1)c1cccc(C(F)(F)F)n1` [Compound 03-25] the EC50 was over 1000 nM. `CC(C)(C)NC[C@@H](O)c1ccc2ccccc2n1` [Compound 03-166] gave an EC50 of 100 to 1000 nM. `CC(C)(COc1ccccc1)NC[C@@H](O)c1cccc(C(F)(F)F)n1` [Compound 03-185] was tested, and the EC50 was over 1000 nM. Compound `O[C@H](CNC1Cc2ccccc2C1)c1cccc(C(F)(F)F)n1` [Compound 03-22] has an EC50 of over 1000 nM. For `CC(C)(C)NC[C@H](O)c1cccc(N2CC3CCCC3C2)n1` (some centres unmarked) [Compound 03-135], the EC50 was 100 to 1000 nM. `CCN(CC)c1cccc([C@H](O)CNC(C)(C)C)n1` [Compound 03-160] was tested, and the EC50 was 100 to 1000 nM. `CC(C)(C)NC[C@@H](O)c1cccc(-c2cccnc2)n1` [Compound 03-152] showed an EC50 of over 1000 nM. `Cc1ccc([C@H](O)CNC(C)(C)C)nc1` [Compound 03-128] showed an EC50 of over 1000 nM. `CC(C)(C)NC[C@H](O)c1cccc(-c2ccccc2Cl)n1` [Compound 03-133] showed an EC50 of 100 to 1000 nM. For `CC(C)(C)NC[C@H](O)c1cccc(-c2cccnc2)n1` [Compound 03-151], the EC50 was 10 to 100 nM. `Cc1cccc(-c2cccc([C@@H](O)CNC(C)(C)C)n2)c1` [Compound 03-147] showed an EC50 of 10 to 100 nM. Compound `CC(C)(C)NC[C@H](O)c1cccc(C(N)=O)n1` [Compound 03-17] has an EC50 of over 1000 nM.

Same assay, conditions: cAMP HTRF; read-out: β1 EC50
`Cc1cccnc1[C@@H](O)CNC(C)(C)C` [Compound 03-4] was tested, and the EC50 was over 1000 nM.
